Here are results for 25 molecules from patent US20020103377A1, “Piperidinyloxy and pyrrolidinyloxy oxazolidinone antibacterials” (priority 1999, published 2002).

For one test, the system named is S. aureus. The test is described as follows: MIC by microdilution broth method (NCCLS), S. aureus Broth. Format: cell-based. As to conditions: cation adjusted Mueller-Hinton broth, 35° C., 16-20 hours; for MIC: Staphylococcus aureus, read-out: MIC (μg/mL) S. aureus Broth. As to the method: (§1) Minimal inhibitory concentration (MIC) has been an indicator of in vitro antibacterial activity widely used in the art. The in vitro antimicrobial activity of the compounds was determined by the microdilution broth method following the test method from the National Committee for Laboratory Standards (NCCLS). This method is described in the NCCLS Document M7-A4, Vol. 17, No.2, “Methods for Dilution Antimicrobial Susceptibility Test for Bacteria that Grow Aerobically-Fourth Edition”, which is incorporated herein by reference.
(§2) In this method two-fold serial dilutions of drug in cation adjusted Mueller-Hinton broth are added to wells in microdilution trays. The test organisms are prepared by adjusting the turbidity of actively growing broth cultures so that the final concentration of test organism after it is added to the wells is approximately 5×10^4 CFU/well.
(§3) Following inoculation of the microdilution trays, the trays are incubated at 35° C. for 16-20 hours and then read. […] The amount of growth in the wells containing the test compound is compared with the amount of growth in the growth-control wells (no test compound) used in each tray. As set forth in Table 1, compounds of the present invention were tested against a variety of Gram positive and Gram negative pathogenic bacteria resulting in a range of activities, from 1 to ≧128 μg/mL depending on the organism tested.
On the technique in general: Dilution methods test growth across graded concentrations, often in twofold steps.

For the next test, the system named is E. faecium OC3312. The test is described as follows: MIC by microdilution broth method (NCCLS), E. faecium OC3312. Format: cell-based. As to conditions: cation adjusted Mueller-Hinton broth, 35° C., 16-20 hours; for MIC: Enterococcus faecium, OC3312, microdilution broth, read-out: MIC (μg/mL) E. faecium OC3312. As to the method:
as §1, §2, §3

A further test relates to MRSA OC 2878. The test is described as follows: MIC by microdilution broth method (NCCLS), MRSA OC 2878. The test is classed as cell-based, Staphylococcus aureus. As to conditions: cation adjusted Mueller-Hinton broth, 35° C., 16-20 hours; for MIC: Staphylococcus aureus, MRSA, read-out: MIC (μg/mL) MRSA OC 2878. As to the method: as §1, §2, §3

≈ marks a conversion by molar mass, not a printed value.

Take `CC(=O)NC[C@H]1CN(c2ccc(OC3CCN(C(=O)COCc4ccccc4)CC3)c(F)c2)C(=O)O1` [Compound 3, (S)-N-[[3-[3-Fluoro-4-{N-(benzyloxyacetyl)piperidinyl-4-oxy}phenyl]-2-oxo-5-oxazolidinyl]methyl]acetamide]: the “MIC (μg/mL) S. aureus Broth” value in the test on S. aureus was found to be 4 µg/mL (≈ 8.01 µM). The “MIC (μg/mL) E. faecium OC3312” value with E. faecium OC3312 (microdilution broth) was found to be 4 µg/mL (≈ 8.01 µM). Further, the “MIC (μg/mL) MRSA OC 2878” value in the test with MRSA OC 2878 came out at 2 µg/mL (≈ 4 µM).
Turning to `CC(=O)NC[C@H]1CN(c2ccc(OC3CCN(C(=O)CO)CC3)c(F)c2)C(=O)O1` [Compound 4, (S)-N-[[3-[3-Fluoro-4-{N-(α-hydroxyacetyl)piperidinyl-4-oxy}phenyl]-2-oxo-5-oxazolidinyl]methyl]acetamide], the values for the MIC in the test with S. aureus, with E. faecium OC3312 and in the test with MRSA OC 2878 were 4 µg/mL (≈ 9.77 µM), 8 µg/mL (≈ 19.5 µM) and 4 µg/mL (≈ 9.77 µM), respectively.
With `COCC(=O)N1CCC(Oc2ccc(N3C[C@H](CNC(C)=O)OC3=O)cc2F)CC1` [Compound 5, (S)-N-[[3-[3-Fluoro-4-{N-(methoxyacetyl)piperidinyl-4-oxy}phenyl]-2-oxo-5-oxazolidinyl]methyl]acetamide], the figures for the MIC in the test with S. aureus, with E. faecium OC3312 and in the test on MRSA OC 2878 were 8 µg/mL (≈ 18.9 µM), 16 µg/mL (≈ 37.8 µM) and 8 µg/mL (≈ 18.9 µM), respectively.
Consider `CC(=O)NC[C@H]1CN(c2ccc(OC3CCN(C(C)=O)CC3)c(F)c2)C(=O)O1` [Compound 7, (S)-N-[[3-[3-Fluoro-4-{N-(acetyl)piperidinyl-4-oxy}phenyl]-2-oxo-5-oxazolidinyl]methyl]acetamide], for which the MIC in the test on S. aureus was found to be 8 µg/mL (≈ 20.3 µM); with E. faecium OC3312, 16 µg/mL (≈ 40.7 µM); in the test on MRSA OC 2878, 8 µg/mL (≈ 20.3 µM).
For the molecule `COC(=O)N1CCC(Oc2ccc(N3C[C@H](CNC(C)=O)OC3=O)cc2F)CC1` [Compound 8, (S)-N-[[3-[3-fluoro-4-{N-(methoxycarbonyl)piperidinyl-4-oxy}phenyl]-2-oxo-5-oxazolidinyl]methyl]acetamide], the MIC was 8 µg/mL (≈ 19.5 µM) in the test on S. aureus, 8 µg/mL (≈ 19.5 µM) with E. faecium OC3312 and 4 µg/mL (≈ 9.77 µM) in the test on MRSA OC 2878.
As for `COc1ccc(C(=O)N2CCC(Oc3ccc(N4C[C@H](CNC(C)=O)OC4=O)cc3F)CC2)cc1` [Compound 13, (S)-N-[[3-[3-Fluoro-4-{N-(4-methoxybenzoyl)piperidinyl-4-oxy}phenyl]-2-oxo-5-oxazolidinyl]methyl]acetamide], the MIC in the test with S. aureus turned out to be 8 µg/mL (≈ 16.5 µM); in the test with E. faecium OC3312, 16 µg/mL (≈ 33 µM); with MRSA OC 2878, 8 µg/mL (≈ 16.5 µM).
For the molecule `CC(=O)NC[C@H]1CN(c2ccc(OC3CCN(C(=O)CNC(=O)OCc4ccccc4)CC3)c(F)c2)C(=O)O1` [Compound 15], the MIC in the test with S. aureus, with E. faecium OC3312 and with MRSA OC 2878 was 8 µg/mL (≈ 14.7 µM) each time.
In the case of `CC(=O)NC[C@H]1CN(c2ccc(OC3CCN(C(=O)c4ccncc4)CC3)c(F)c2)C(=O)O1` [Compound 21, (S)-N-[[3-[3-Fluoro-4-{N-(4-pyridoyl)piperidinyl-4-oxy}phenyl]-2-oxo-5-oxazolidinyl]methyl]acetamide], the results for the MIC in the test with S. aureus, with E. faecium OC3312 and in the test with MRSA OC 2878 were 32 µg/mL (≈ 70.1 µM), 64 µg/mL (≈ 140 µM) and 32 µg/mL (≈ 70.1 µM), respectively.
On to `CC(=O)NC[C@H]1CN(c2ccc(OC3CCN(C(=O)CCc4ccccc4)CC3)c(F)c2)C(=O)O1` [Compound 28, (S)-N-[[3-[3-Fluoro-4-{N-(3-phenyl-propionyl)piperidinyl-4-oxy}phenyl]-2-oxo-5-oxazolidinyl]methyl]acetamide], for which the figures for the MIC in the test with S. aureus, in the test with E. faecium OC3312 and in the test on MRSA OC 2878 were 16 µg/mL (≈ 33.1 µM), 16 µg/mL (≈ 33.1 µM) and 8 µg/mL (≈ 16.5 µM), respectively.
As to `CC(=O)NC[C@H]1CN(c2ccc(OC3CCN(C(=O)CO)CC3)cc2)C(=O)O1` [Compound 31, (S)-N-[[3-[4-{N-(α-Hydroxyacetyl)piperidinyl-4-oxy}phenyl]-2-oxo-5-oxazolidinyl]methyl]acetamide], the MIC in the test on S. aureus is 16 µg/mL (≈ 40.9 µM); in the test on E. faecium OC3312 it was 32 µg/mL (≈ 81.8 µM); with MRSA OC 2878 it was 16 µg/mL (≈ 40.9 µM).
For the molecule `CC(=O)NC[C@H]1CN(c2ccc(OC3CCN(C(C)=O)CC3)cc2)C(=O)O1` [Compound 32, (S)-N-[[3-[4-{N-(Acetyl)piperidinyl-4-oxy}phenyl]-2-oxo-5-oxazolidinyl]methyl]acetamide], the results for the MIC with S. aureus, in the test with E. faecium OC3312 and in the test on MRSA OC 2878 were 16 µg/mL (≈ 42.6 µM), 32 µg/mL (≈ 85.2 µM) and 8 µg/mL (≈ 21.3 µM), respectively.
The matching figures for `CC(=O)NC[C@H]1CN(c2ccc(OC3CCN(S(C)(=O)=O)CC3)cc2)C(=O)O1` [Compound 33, (S)-N-[[3-[4-{N-(Methanesulfonyl)piperidinyl-4-oxy}phenyl]-2-oxo-5-oxazolidinyl]methyl]acetamide]: 16 µg/mL (≈ 38.9 µM), 32 µg/mL (≈ 77.8 µM) and 16 µg/mL (≈ 38.9 µM).
In the case of `CC(=O)NC[C@H]1CN(c2ccc(OC3CCCN(C(=O)COCc4ccccc4)C3)c(F)c2)C(=O)O1` (stereo partly drawn) [Compound 35, (S)-N-[[3-[3-Fluoro-4-{N-(benzyloxyacetyl)piperidinyl-3-oxy}phenyl]-2-oxo-5-oxazolidinyl]methyl]acetamide], the MIC turned out to be 32 µg/mL (≈ 64.1 µM) with S. aureus, 64 µg/mL (≈ 128 µM) in the test on E. faecium OC3312 and 32 µg/mL (≈ 64.1 µM) with MRSA OC 2878.
Take `CC(=O)NC[C@H]1CN(c2ccc(OC3CCCN(C(=O)CO)C3)c(F)c2)C(=O)O1` (stereo partly drawn) [Compound 36, (S)-N-[[3-[3-Fluoro-4-{N-(α-hydroxyacetyl)piperidinyl-3-oxy}phenyl]-2-oxo-5-oxazolidinyl]methyl]acetamide]: the MIC in the test with S. aureus is 8 µg/mL (≈ 19.5 µM); in the test on E. faecium OC3312, 16 µg/mL (≈ 39.1 µM); with MRSA OC 2878, 8 µg/mL (≈ 19.5 µM).
Regarding `CC(=O)NC[C@H]1CN(c2ccc(OC3CCCN(C(C)=O)C3)c(F)c2)C(=O)O1` (stereo partly drawn) [Compound 37, (S)-N-[[3-[3-Fluoro-4-{N-(acetyl)piperidinyl-3-oxy}phenyl]-2-oxo-5-oxazolidinyl]methyl]acetamide], the results for the MIC with S. aureus, with E. faecium OC3312 and with MRSA OC 2878 were 8 µg/mL (≈ 20.3 µM), 16 µg/mL (≈ 40.7 µM) and 8 µg/mL (≈ 20.3 µM), respectively.
On to `CC(=O)NC[C@H]1CN(c2ccc(OC3CCN(C(=O)COCc4ccccc4)CC3)nc2)C(=O)O1` [Compound 42, (5S)-3-[6-{N-(Benzyloxyacetyl)piperidinyl-4-oxy}-pyridin-3-yl]-5-methylacetamide-oxazolidin-2-one], for which the MIC with S. aureus was 32 µg/mL (≈ 66.3 µM); in the test with E. faecium OC3312 it was more than 128 µg/mL; in the test on MRSA OC 2878, 32 µg/mL (≈ 66.3 µM).
Regarding `CC(=O)NC[C@H]1CN(c2ccc(OC3CCN(C(C)=O)CC3)nc2)C(=O)O1` [Compound 43, (5S)-3-[6-{N-(Acetyl)piperidinyl-4-oxy}-pyridin-3-yl]-5-methylacetamide-oxazolidin-2-one], the MIC in the test on S. aureus was 128 µg/mL (≈ 340 µM); in the test on E. faecium OC3312, more than 128 µg/mL; in the test with MRSA OC 2878, 128 µg/mL (≈ 340 µM).
Take `CC(=O)NC[C@H]1CN(c2ccc(OC3CCN(C(=O)c4ccc(C#N)cc4)CC3)nc2)C(=O)O1` [Compound 45, (5S)-3-[6-{N-(4-Cyanobenzoyl)piperidinyl-4-oxy}-pyridin-3-yl]-5-methylacetamide-oxazolidin-2-one]: the MIC with S. aureus was found to be 64 µg/mL (≈ 138 µM); with E. faecium OC3312 it was 128 µg/mL (≈ 276 µM); with MRSA OC 2878 it was 64 µg/mL (≈ 138 µM).
Consider `CC(=O)NC[C@H]1CN(c2ccc(OC3CCN(C(=O)c4cccc(F)c4)CC3)nc2)C(=O)O1` [Compound 47, (5S)-3-[6-{N-(3-Fluorobenzoyl)piperidinyl-4-oxy}-pyridin-3-yl]-5-methylacetamide-oxazolidin-2-one], for which the figures for the MIC in the test on S. aureus, in the test on E. faecium OC3312 and with MRSA OC 2878 were 64 µg/mL (≈ 140 µM), more than 128 µg/mL and 64 µg/mL (≈ 140 µM), respectively.
Regarding `COc1cccc(C(=O)N2CCC(Oc3ccc(N4C[C@H](CNC(C)=O)OC4=O)cn3)CC2)c1` [Compound 48, (5S)-3-[6-{N-(3-Methoxybenzoyl)piperidinyl-4-oxy}-pyridin-3-yl]-5-methylacetamide-oxazolidin-2-one], the MIC in the test on S. aureus was 64 µg/mL (≈ 137 µM); with E. faecium OC3312, more than 128 µg/mL; with MRSA OC 2878, 32 µg/mL (≈ 68.3 µM).
The matching figures for `CC(=O)NC[C@H]1CN(c2ccc(OC3CCN(C(=O)N(C)C)CC3)nc2)C(=O)O1` [Compound 49, (5S)-3-[6-{N-(Dimethylcarbamoyl)piperidinyl-4-oxy}-pyridin-3-yl]-5-methylacetamide-oxazolidin-2-one]: more than 64 µg/mL, more than 128 µg/mL and 128 µg/mL (≈ 316 µM).
Turning to `CC(=O)NC[C@H]1CN(c2ccc(OC3CCN(C(=O)C(NC(=O)OCc4ccccc4)C(C)C)CC3)nc2)C(=O)O1` (stereo partly drawn) [Compound 50], the MIC with S. aureus is more than 64 µg/mL; with E. faecium OC3312 it was more than 64 µg/mL; with MRSA OC 2878 it was 64 µg/mL (≈ 113 µM).
Regarding `CC(=O)NC[C@H]1CN(c2ccc(OC3CCN(C(=O)c4ccno4)CC3)c(F)c2)C(=O)O1` [Compound 52, (S)-N-[[3-[3-Fluoro-4-{N-(5-isoxazolylcarbonyl)piperdinyl-4-oxy}phenyl]-2-oxo-5-oxazolidinyl]methyl]acetamide], the MIC in the test on S. aureus was 8 µg/mL (≈ 17.9 µM); in the test on E. faecium OC3312 it was 4 µg/mL (≈ 8.96 µM); in the test on MRSA OC 2878, 8 µg/mL (≈ 17.9 µM).
On to `CC(=O)NC[C@H]1CN(c2ccc(OC3CCN(C(=O)COCc4ccncc4)CC3)c(F)c2)C(=O)O1` [Compound 54], for which the MIC in the test on S. aureus, in the test with E. faecium OC3312 and in the test with MRSA OC 2878 was 8 µg/mL (≈ 16 µM) throughout.
For the molecule `CC(=O)NC[C@H]1CN(c2ccc(OC3CCN(C(=O)COCc4cccnc4)CC3)c(F)c2)C(=O)O1` [Compound 55], the MIC in the test on S. aureus came to 16 µg/mL (≈ 32 µM); in the test with E. faecium OC3312, 8 µg/mL (≈ 16 µM); in the test with MRSA OC 2878, 16 µg/mL (≈ 32 µM).
